Reference: patent US7002012B2, “Substituted (1,3-bis(cyclohexylmethyl)-1,2,3,6-tetrahydro-2,6-dioxo-9h-purin-8-YI)phenyl derivatives, their preparation and their use in the treatment of inflammatory conditions and immune disorders” (SmithKline Beecham Corporation, priority 1997, dated 2006)

Experiments:
male Lewis rats [1] = test: Carrageenan Pleurisy Assay; type: in vivo, rat; settings: for CARRAGEENAN PLEURISY (4 hr) LOCAL ED50 (MG/RAT) CELLS: inhibition of inflammatory cells (neutrophils) in pleural exudate four hours after carrageenan 0.075 mg/rat; for CARRAGEENAN PLEURISY (4 hr) LOCAL ED50 (MG/RAT) CELLS / CARRAGEENAN PLEURISY (4 hr) LOCAL ED50 (MG/RAT) EDEMA: local administration; for CARRAGEENAN PLEURISY (4 hr) LOCAL ED50 (MG/RAT) EDEMA: inhibition of pleural edema four hours after carrageenan 0.075 mg/rat
Description: The antiinflammatory activity of compounds of the invention was determined by the procedure of Vinegar, R, et al., Proc. Soc. Exp. Biol. Med., 1981, 168, 24–32, using male Lewis rats of 150±±}20 grams. The carrageenan dose was 0.075 mg/rat. Pleural exudate was harvested four hours after injection of carrageenan. Acute antiinflammatory activity was determined by inhibition of pleural edema and inflammatory cells (neutrophils) from a negative (vehicle) control group.

male Lewis rats [2] = test: Acetic Acid Colitis Assay; type: in vivo, rat; settings: for ACETIC ACID COLITIS (24 hr) ACTIVE DOSE [MG/KG] (ROUTE) TISSUE WEIGHT: colon weight (edema); for ACETIC ACID COLITIS (24 hr) ACTIVE DOSE [MG/KG] (ROUTE) MPO: mucosal MPO levels
Description: Compounds were administered either orally or rectally 24, 16 and 4 hours prior to the 40 second instillation of 3% acetic acid solution in the proximal 6 cm of the colon under light anesthesia. The colon was immediately washed with 5 cc of saline. 24 hours later the rats were sacrificed and 6 cm of the proximal colon was excised weighed for edema. Neutrophil inflammation was determined by measuring MPO levels in the scraped colonic mucosa from these rats.

Male CD-1 mice = test: In Vivo Septic Shock Model: C Parvum/LPS Shock; settings: oral dose 75 mg/kg, 2 hours before the LPS and at the same time as the LPS
Description: Male CD-1 mice, 25–30 g (Charles River: Raleigh, N.C.), are injected intravenously (i.v.) with 100 μμ}g killed C. Parvum (Coparvax; Burroughs Wellcome, RTP, NC).Ten days later the mice are injected i.v. with 20 μμ}g E. Coli 026:B6 lipopolysaccharide (LPS; Difco Labs, Detroit, Mich.) in the presence of the analgesic butorphenol (150 μμ}g per mouse).
The test compounds are dissolved in dimethyl sulphoxide and diluted into 0.5% methyl cellulose and then dosed orally 2 hours before the LPS and at the same time as the LPS.

[3] = ic = intracolonic administration

(E)-4-(1,3-Bis(cyclohexylmethyl)-1,2,3,6-tetrahydro-2,6-dioxo-9H-purin-8-yl)cinnamic Acid Polyethylene Glycol (n=13) Ester [Example 18]
CARRAGEENAN PLEURISY (4 hr) LOCAL ED50 (MG/RAT) CELLS (male Lewis rats [1]): 0.1 MG/RAT | CARRAGEENAN PLEURISY (4 hr) LOCAL ED50 (MG/RAT) EDEMA (male Lewis rats [1]): 0.1 MG/RAT

(E)-4-(1,3-Bis(cyclohexylmethyl)-1,2,3,6-tetrahydro-2,6-dioxo-9H-purin-8-yl)cinnamic Acid Polyethylene Glycol (n=41.5) Methyl Ether Ester [Example 14]
CARRAGEENAN PLEURISY (4 hr) LOCAL ED50 (MG/RAT) CELLS (male Lewis rats [1]): Inactive | CARRAGEENAN PLEURISY (4 hr) LOCAL ED50 (MG/RAT) EDEMA (male Lewis rats [1]): 0.5 MG/RAT

(E)-4-(1,3-Bis(cyclohexylmethyl)-1,2,3,6-tetrahydro-2,6-dioxo-9H-purin-8-yl)cinnamic Acid Polyethylene Glycol (n=32.2) Ester [Example 16]
CARRAGEENAN PLEURISY (4 hr) LOCAL ED50 (MG/RAT) CELLS (male Lewis rats [1]): 0.2 MG/RAT | CARRAGEENAN PLEURISY (4 hr) LOCAL ED50 (MG/RAT) EDEMA (male Lewis rats [1]): 0.2 MG/RAT

COCCOCCOCCOCCOCCOCCOCCOCCOCCOCCOC(=O)/C=C/c1ccc(-c2nc3c(=O)n(CC4CCCCC4)c(=O)n(CC4CCCCC4)c3[nH]2)cc1 [Example 9, (E)-4-(1,3-Bis(cyclohexylmethyl)-1,2,3,6-tetrahydro-2,6-dioxo-9H-purin-8-yl)cinnamic Acid Decaethylene Glycol Methyl Ether Ester]
ACETIC ACID COLITIS (24 hr) ACTIVE DOSE [MG/KG] (ROUTE) TISSUE WEIGHT (male Lewis rats [2]; [3]): 5.0 mg/kg | ACETIC ACID COLITIS (24 hr) ACTIVE DOSE [MG/KG] (ROUTE) MPO (male Lewis rats [2]; [3]): 5.0 mg/kg | % Survivors (Male CD-1 mice): 50% | Alive/Total (Male CD-1 mice): 4/8 | CARRAGEENAN PLEURISY (4 hr) LOCAL ED50 (MG/RAT) CELLS (male Lewis rats [1]): 0.02 MG/RAT | CARRAGEENAN PLEURISY (4 hr) LOCAL ED50 (MG/RAT) EDEMA (male Lewis rats [1]): 0.2 MG/RAT

COCCOCCOCCOCCOCCOCCOCCOCCOCCOC(=O)/C=C/c1ccc(-c2nc3c(=O)n(CC4CCCCC4)c(=O)n(CC4CCCCC4)c3[nH]2)cc1 [Example 10, (E)-4-(1,3-Bis(cyclohexylmethyl)-1,2,3,6-tetrahydro-2,6-dioxo-9H-purin-8-yl)cinnamic Acid Nonaethylene Glycol Methyl Ether Ester]
ACETIC ACID COLITIS (24 hr) ACTIVE DOSE [MG/KG] (ROUTE) TISSUE WEIGHT (male Lewis rats [2]; po = oral administration): 50 mg/kg | ACETIC ACID COLITIS (24 hr) ACTIVE DOSE [MG/KG] (ROUTE) MPO (male Lewis rats [2]; po = oral administration): 50 mg/kg | CARRAGEENAN PLEURISY (4 hr) LOCAL ED50 (MG/RAT) CELLS (male Lewis rats [1]): 0.5 MG/RAT | CARRAGEENAN PLEURISY (4 hr) LOCAL ED50 (MG/RAT) EDEMA (male Lewis rats [1]): 0.5 MG/RAT

(E)-4-(1,3-Bis(cyclohexylmethyl)-1,2,3,6-tetrahydro-2,6-dioxo-9H-purin-8-yl)cinnamic Acid Polyethylene Glycol (n=18.9) Ester [Example 17]
CARRAGEENAN PLEURISY (4 hr) LOCAL ED50 (MG/RAT) CELLS (male Lewis rats [1]): 0.1 MG/RAT | CARRAGEENAN PLEURISY (4 hr) LOCAL ED50 (MG/RAT) EDEMA (male Lewis rats [1]): 0.1 MG/RAT

(E)-4-(1,3-Bis(cyclohexylmethyl)-1,2,3,6-tetrahydro-2,6-dioxo-9H-purin-8-yl)cinnamic Acid Polyethylene Glycol (n=15) Methyl Ether Ester [Example 15]
ACETIC ACID COLITIS (24 hr) ACTIVE DOSE [MG/KG] (ROUTE) TISSUE WEIGHT (male Lewis rats [2]; po = oral administration): inactive | ACETIC ACID COLITIS (24 hr) ACTIVE DOSE [MG/KG] (ROUTE) MPO (male Lewis rats [2]; po = oral administration): 50 mg/kg | CARRAGEENAN PLEURISY (4 hr) LOCAL ED50 (MG/RAT) CELLS (male Lewis rats [1]): 0.4 MG/RAT | CARRAGEENAN PLEURISY (4 hr) LOCAL ED50 (MG/RAT) EDEMA (male Lewis rats [1]): 0.2 MG/RAT

O=C(O)/C=C/c1ccc(-c2nc3c(=O)n(CC4CCCCC4)c(=O)n(CC4CCCCC4)c3[nH]2)cc1 [compound 1, (E)-4-[1,3 Bis(cyclohexylmethyl)-1,2,3,6-tetrahydro-2,6-dioxo-9H-purin-8-yl]cinnamic acid, reference compound]
activity in Acetic Acid Colitis Assay (male Lewis rats [2]): inactive | % Survivors (Male CD-1 mice): 25% | Alive/Total (Male CD-1 mice): 2/8 | activity in Carrageenan Pleurisy Assay (male Lewis rats [1]): inactive

C[C@@H]1C[C@H]2[C@@H]3CCC4=CC(=O)C=C[C@]4(C)[C@@]3(F)[C@@H](O)C[C@]2(C)[C@@]1(O)C(=O)CO [Dexamethasone, reference compound]
ACETIC ACID COLITIS (24 hr) ACTIVE DOSE [MG/KG] (ROUTE) TISSUE WEIGHT (male Lewis rats [2]; [3]): 0.17 mg/kg | ACETIC ACID COLITIS (24 hr) ACTIVE DOSE [MG/KG] (ROUTE) MPO (male Lewis rats [2]; [3]): 0.03 mg/kg | CARRAGEENAN PLEURISY (4 hr) LOCAL ED50 (MG/RAT) CELLS (male Lewis rats [1]): 0.02 MG/RAT | CARRAGEENAN PLEURISY (4 hr) LOCAL ED50 (MG/RAT) EDEMA (male Lewis rats [1]): 0.015 MG/RAT
